1 sequence from patent US9572862B2, “Methods for promoting lipolysis and oxidation in liver and adipose tissue using catestatin” (The Regents of the University of California, priority 2012, dated 2017) can be followed below.

Assay [1] relates to adipose tissue explants from Ob/Ob mice. The assay is described as follows: Lipolysis and fatty acid oxidation in adipose explants of Ob/Ob mice. In kind it is cell-based. As for the experimental part: FIG. 8. Lipolysis and fatty acid oxidation in the adipose tissue explants of DIO and Ob/Ob mice after treatment with saline or CST for 16 days. Explants were incubated with saline or leptin (1 μM) for 3 hr and the concentrations of glycerol (A&C) and NEFA (B&D) released into the media from DIO (A&B) and Ob/Ob (C&D) explants were determined as a measure of lipolysis. Homogenates of the explants from DIO (E) and Ob/Ob […] were used to determine their capacity for oxidation of U-^14C-palmitate in response to the treatment with saline, CST, leptin and CST+leptin. The ^14CO2 released was captured and counted as the measure of fatty acid oxidation.
(§1) Adipose tissue explants were prepared as described (42). Epididymal fat pads from 12 hr fasted WT, Chga-KO, DIO and Ob/Ob mice with or without CST treatment were collected in Kreb-Ringer-phosphate (KRP) buffer containing 10 mM Hepes and 0.5% BSA. Tissues were minced to 1-2 mm size and treated with 100 nM CST, 1 μM leptin, or saline for 30 min (for signaling analysis) or 3 hr (for lipolysis and β-oxidation assays). Explants were also treated acutely with CST, leptin, a combination, or saline. At the end, incubation media were saved for analysis of glycerol and fatty acid release. Explants were washed prior to homogenization for immunoblotting and analysis of fatty acid oxidation.
Oxidation of radiolabeled palmitate in the homogenates of adipose tissue explants as described previously (45). For oxidation studies of cultured cells, HepG2 (hepatocytes) and 3T3-L1 preadipocytes were obtained from ATCC and cultured following supplier's protocol. Confluent 3T3-L1 cultures were differentiated into adipocytes by treating with a cocktail of dexamethasone (100 nM), IBMX ([…]) and insulin (100 nM) for 10 days. Media were then switched to serum-free DMEM with 1% BSA. Hepatocytes were assayed for lipogenesis and fat oxidation in response to CST treatment. Serum-free cultures were treated with CST (100 nM) for 24 hr followed by a 2 hr incubation with U^14C-palmitate (0.5 μCi/ml). Fatty acid oxidation in cells was determined by modifying a published method (46). Specifically, the culture media in 24-well plates were acidified with 10% HClO4 after incubation with the labeled fatty acid and immediately covered with a thick filter paper sheet (cut to size) soaked in 2 N NaOH and placed underneath the plastic lid. The whole plate was sealed with parafilm. After further incubation for 2 hr, the filter paper sheet was marked as circles around the rim of the wells and then the circles were excised. The filter discs were counted to determine the amount of ^14CO2 absorbed in the papers. Cells in the culture wells were lysed in 1 N NaOH and protein content was assayed using Folin's reagent (BioRad, Hercules, Calif.).

Assay [2] has as its system STAT3 and AMPK phosphorylation. The assay is described as follows: Stat3 and AMPK signaling in adipose explants from Ob/Ob mice. In kind it is cell-based. Particulars: CST in vivo, leptin 1 μM ex vivo 30 min. As for the experimental part:
FIG. 9. Stat3 and AMPK signaling in the adipose tissue explants from DIO and Ob/Ob mice treated with saline, CST (in vivo) and leptin (ex vivo). Explants from DIO mice (A&B) and Ob/Ob mice (C&D) were incubated with saline or leptin (1 μM) for 30 min, homogenized and immunoblotted for phospho- and total Stat3 (A&C) as well as phospho- and total AMPK signals (B&D). Results are presented as the ratio of signal strength of phospho-over total.
as §1
Adipose tissue explants after treatments ex vivo and tissues from mice treated in vivo were homogenized in a buffer containing phosphatase and protease inhibitors (20 mM Tris/HCl (pH 7.5), 250 mM sucrose, 2 mM EDTA, 2 mM EGTA, 2 mM Na3VO4, 10 mM NaF, 2 mM Na4P2O7, 1 mM phenylmethylsulfonyl fluoride, 20 μg/ml leupeptin, 10 μg/ml aprotinin, and 1 μM LR-microcystin) as described (38,44). Homogenates were subjected to SDS-PAGE and immunoblotted. Primary antibodies for AMPK and Stat3 were from Cell Signaling Technology (Beverly, Mass.). The chemiluminescence kit was from Pierce (Rockford, Ill.).

No end group written: not given here.

Turning to SSMKLSFRARAYGFRGPGPQL [CST], the palmitate oxidation result in assay [1] is listed as “not CST alone”. In addition, the “lipolysis (glycerol and NEFA release)” value in assay [1] (CST in vivo 16 days, leptin 1 μM ex vivo 3 hr) was “did not influence lipolysis”. Moreover, the STAT3 phosphorylation result in assay [2] is given as “CST stimulation of STAT3 phosphorylation”.
